ChEMBL document CHEMBL5042544, “Discovery of a Potent and Selective ATAD2 Bromodomain Inhibitor with Antiproliferative Activity in Breast Cancer Models” (J Med Chem, 2022)

Legend:
[1] = target: T1, Bromodomain-containing protein 4 (Homo sapiens, UniProt O60885); experiment: Displacement of Alexafluor 647-JQ1 from GST-BRD4 BD1 BD2 (44 to 460 residues) (unknown origin) incubated for 60 mins by fluorescence polarization assay
[2] = target: T2, ATPase family AAA domain-containing protein 2 (Homo sapiens, UniProt Q6PL18); experiment: Displacement of Halo-tagged Histone H3.3 from Nanoluc-ATAD2A BD (962 to 1119 residues) (unknown origin) transfected in human HCT116 cells incubated for 18 hrs by NanoBRET assay; assay type: cell-based, HCT-116
T2 sequence (Q6PL18 whole entry): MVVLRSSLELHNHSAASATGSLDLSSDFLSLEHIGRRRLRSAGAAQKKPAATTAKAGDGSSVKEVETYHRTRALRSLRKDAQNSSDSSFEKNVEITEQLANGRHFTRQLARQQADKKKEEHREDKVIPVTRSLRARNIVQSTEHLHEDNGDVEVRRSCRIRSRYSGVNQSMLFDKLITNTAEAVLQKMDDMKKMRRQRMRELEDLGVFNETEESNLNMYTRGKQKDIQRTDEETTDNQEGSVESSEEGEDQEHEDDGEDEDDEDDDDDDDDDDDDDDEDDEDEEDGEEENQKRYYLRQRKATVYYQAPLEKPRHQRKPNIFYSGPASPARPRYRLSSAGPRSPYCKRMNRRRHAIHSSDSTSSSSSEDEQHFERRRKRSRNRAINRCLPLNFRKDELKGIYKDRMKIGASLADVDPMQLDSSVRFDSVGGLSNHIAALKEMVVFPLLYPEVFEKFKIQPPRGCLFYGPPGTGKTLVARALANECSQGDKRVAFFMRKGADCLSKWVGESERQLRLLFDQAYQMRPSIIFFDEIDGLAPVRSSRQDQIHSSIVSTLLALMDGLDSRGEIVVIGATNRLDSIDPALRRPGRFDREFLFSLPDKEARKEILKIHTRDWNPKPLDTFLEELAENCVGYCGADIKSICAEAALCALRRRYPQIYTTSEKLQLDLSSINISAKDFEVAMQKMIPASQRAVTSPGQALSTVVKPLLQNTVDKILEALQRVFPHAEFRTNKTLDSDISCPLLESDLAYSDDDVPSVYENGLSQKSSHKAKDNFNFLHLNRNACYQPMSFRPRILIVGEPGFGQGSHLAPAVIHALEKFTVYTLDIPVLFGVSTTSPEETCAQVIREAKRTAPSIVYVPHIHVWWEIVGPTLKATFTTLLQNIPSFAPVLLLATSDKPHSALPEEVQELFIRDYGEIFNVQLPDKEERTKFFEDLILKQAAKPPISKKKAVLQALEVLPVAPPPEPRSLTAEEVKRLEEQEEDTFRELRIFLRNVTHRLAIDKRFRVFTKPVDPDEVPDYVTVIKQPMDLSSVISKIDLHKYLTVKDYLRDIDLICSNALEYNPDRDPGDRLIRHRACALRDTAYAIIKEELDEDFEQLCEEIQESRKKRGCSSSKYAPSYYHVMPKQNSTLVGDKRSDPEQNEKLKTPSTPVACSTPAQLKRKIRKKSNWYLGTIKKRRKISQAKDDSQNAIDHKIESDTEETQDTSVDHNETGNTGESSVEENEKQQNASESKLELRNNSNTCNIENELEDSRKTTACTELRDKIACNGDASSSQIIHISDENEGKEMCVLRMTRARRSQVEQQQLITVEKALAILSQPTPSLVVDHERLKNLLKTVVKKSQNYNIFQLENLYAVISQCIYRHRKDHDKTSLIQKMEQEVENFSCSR

[3] = target: T2, ATPase family AAA domain-containing protein 2; experiment: Inhibition of GST-ATAD2 BD (951 to 1132 residues) (unknown origin) expressed in Escherichia coli BL21 (DE3) and biotinylated tetra-acetylated histone H4 peptides as substrate by TR-FRET artifact assay
[4] = target: T2, ATPase family AAA domain-containing protein 2; experiment: Inhibition of GST-ATAD2 BD (951 to 1132 residues) (unknown origin) expressed in Escherichia coli BL21 (DE3) and biotinylated tetra-acetylated histone H4 peptides as substrate incubated for 30 mins by TR-FRET assay
[5] = Distribution coefficient, logD of compound at pH 7.4; assay type: physicochemical; details: octanol/water
[6] = target: T1, Bromodomain-containing protein 4; experiment: Displacement of Halo-tagged Histone H3.3 from Nanoluc-BRD4 BD1/BD2 (44 to 460 residues) (unknown origin) transfected in human HCT116 cells incubated for 18 hrs by NanoBRET assay; assay type: cell-based, HCT-116
Homo sapiens = species on record: Homo sapiens; experiment: Selectivity ratio of IC50 for Inhibition of […] GST-ATAD2 BD (981 to 1108 residues) (unknown origin) expressed in Escherichia coli BL21 (DE3) to IC50 for Halo-tagged Histone H3.3 from Nanoluc-ATAD2 BD ([…] residues) (unknown origin) transfected in human HCT116 cells
[7] = target: T2, ATPase family AAA domain-containing protein 2; experiment: Inhibition of GST-ATAD2 BD (981 to 1108 residues) (unknown origin) expressed in Escherichia coli BL21 (DE3) and biotinylated tetra-acetylated histone H4 peptides as substrate incubated for 30 mins by TR-FRET assay
MDA-MB-231 = experiment: Antiproliferative activity against human MDA-MB-231 cells assessed as inhibition of proliferation after 72 hrs; assay type: functional
[8] = target: T2, ATPase family AAA domain-containing protein 2; experiment: Displacement of Halo-tagged Histone H3.3 from Nanoluc-ATAD2 BD (962 to 1119 residues) (unknown origin) transfected in human HCT116 cells incubated for 18 hrs in presence of efflux inhibitor reversan by NanoBRET assay; assay type: cell-based, HCT-116
[9] = target: T2, ATPase family AAA domain-containing protein 2; experiment: Displacement of Halo-tagged Histone H3.3 from Nanoluc-ATAD2 BD (962 to 1119 residues) (unknown origin) transfected in human HCT116 cells incubated for 18 hrs in presence of efflux inhibitor verapamil by NanoBRET assay; assay type: cell-based, HCT-116
[10] = target: T2, ATPase family AAA domain-containing protein 2; experiment: Displacement of Halo-tagged Histone H3.3 from Nanoluc-ATAD2 BD (962 to 1119 residues) (unknown origin) transfected in human HCT116 cells incubated for 18 hrs in presence of efflux inhibitor elacridar by NanoBRET assay; assay type: cell-based, HCT-116

| Compound | IC50 [1] | IC50 [2] | IC50 [3] | IC50 [4] | logD [5] | IC50 [6] | Ratio IC50 (Homo sapiens) | IC50 [7] | GI50 (MDA-MB-231) | IC50 [8] | IC50 [9] | IC50 [10] |
| --- | --- | --- | --- | --- | --- | --- | --- | --- | --- | --- | --- | --- |
| Cc1nnc2c(NCCCN3CCC(F)(F)CC3)cc(C(=O)N3[C@@H]4c5ccccc5C[C@H]3C(=O)N[C@@H]4C(C)C)nn12 | > 31.6 µM | 1.26 µM | > 25.1 µM | 0.02 µM | 3 | 31.6 µM | 63 | – | – | – | – | – |
| Cc1nnc2c(N)cc(C(=O)N3[C@H]4Cc5ccccc5[C@@H]3CNC4=O)cn12 | > 31.6 µM | – | > 25.1 µM | 6.08 µM | 0.1 | – | – | – | – | – | – | – |
| Cc1cc(C(=O)N2[C@H]3Cc4ccccc4[C@@H]2CNC3=O)c[nH]c1=O | > 31.6 µM | – | > 25.1 µM | 26.3 µM | 0.3 | – | – | – | – | – | – | – |
| CC(C)[C@H]1NC(=O)[C@@H]2Cc3ccccc3[C@H]1N2C(=O)c1cn(C)c(=O)c2[nH]c3ccccc3c12 | > 31.6 µM | – | > 25.1 µM | 0.44 µM | 2.6 | – | – | – | – | – | – | – |
| CNc1cc(C(=O)N2[C@H]3Cc4ccccc4[C@@H]2CNC3=O)cn(C)c1=O | – | – | > 25.1 µM | 11.8 µM | 0.5 | – | – | – | – | – | – | – |
| Cc1nnc2c(NC3CCN(C)CC3)cc(C(=O)N3[C@H]4Cc5ccccc5[C@@H]3CNC4=O)cn12 | > 31.6 µM | – | > 25.1 µM | 0.37 µM | -0.5 | – | – | – | – | – | – | – |
| CO[C@H]1CNC[C@@H](OCC2CCC(F)(F)CC2)[C@@H]1Nc1ncc(-c2cncc(C)c2)c2cc(C)c(=O)[nH]c12 | – | – | – | – | 2.7 | – | – | – | – | – | – | – |
| Cc1nnc2c(NC3CCN(C)CC3)cc(C(=O)N3[C@H]4Cc5ccccc5[C@@H]3CNC4=O)nn12 | > 31.6 µM | 2.51 µM | > 25.1 µM | 0.3 µM | 0.2 | 31.6 µM | 79 | 0.0316 µM | – | – | – | – |
| Cc1nnc2c(NCCCN3CCCC3)cc(C(=O)N3[C@H]4Cc5ccccc5[C@@H]3CNC4=O)nn12 | > 31.6 µM | – | > 25.1 µM | 0.041 µM | -0.3 | – | – | – | – | – | – | – |
| Cn1cc(C(=O)N2[C@H]3Cc4ccccc4[C@@H]2CNC3=O)c2cc[nH]c2c1=O | 15.8 µM | – | > 25.1 µM | 1.48 µM | 0.7 | – | – | – | – | – | – | – |
| COc1cc(C(=O)N2[C@H]3Cc4ccccc4[C@@H]2CNC3=O)cc2c(C)n[nH]c12 | > 31.6 µM | – | > 251 µM | 4.88 µM | 2 | – | – | – | – | – | – | – |
| Cn1cc(C(=O)N2[C@H]3Cc4ccccc4[C@@H]2CNC3=O)cc(N)c1=O | > 31.6 µM | – | > 25.1 µM | 34.3 µM | 0 | – | – | – | – | – | – | – |
| CC1=C(C#N)c2nc(N)c(C#N)c(C)c2/C1=C\c1ccc(-c2cc(C(=O)O)ccc2Cl)o1 | – | – | – | – | – | – | – | 3.16 µM | 1 µM | – | – | – |
| Cn1cc(C(=O)N2[C@H]3Cc4ccccc4[C@@H]2CNC3=O)c2c([nH]c3ccccc32)c1=O | 7.94 µM | – | > 25.1 µM | 0.42 µM | 2 | – | – | – | – | – | – | – |
| CN1C[C@H]2c3ccccc3C[C@@H](C1=O)N2C(=O)c1cn(C)c(=O)c2[nH]ccc12 | 7.94 µM | – | > 25.1 µM | 3.56 µM | 0.9 | – | – | – | – | – | – | – |
| COc1cc(C(=O)N2C3Cc4ccccc4C2CNC3=O)cc(OC)c1O (stereo unspecified) | > 31.6 µM | – | > 25.1 µM | 20.2 µM | 0.9 | – | – | – | – | – | – | – |
| Cc1nnc2c(NCCCN3CCCC3)cc(C(=O)N3[C@@H]4c5ccccc5C[C@H]3C(=O)N[C@@H]4C(C)C)nn12 | 25.1 µM | 2 µM | > 25.1 µM | 0.014 µM | 0.5 | 25.1 µM | 126 | – | – | – | – | – |
| COc1cc(C(=O)N2[C@H]3Cc4ccccc4[C@@H]2CNC3=O)cc(OC)c1O | > 31.6 µM | – | > 25.1 µM | 21.2 µM | 0.9 | – | – | – | – | – | – | – |
| C[C@H]1NC(=O)[C@@H]2Cc3ccccc3[C@H]1N2C(=O)c1cn(C)c(=O)c2[nH]c3ccc(OC(F)(F)F)cc3c12 | > 31.6 µM | 1.26 µM | > 25.1 µM | 0.078 µM | 3.4 | 126 µM | 16 | – | – | 0.794 µM | 0.501 µM | 0.794 µM |
| Cc1nnc2c(N)cc(C(=O)N3[C@H]4Cc5ccccc5[C@@H]3CNC4=O)nn12 | 25.1 µM | – | > 25.1 µM | 0.28 µM | 0.8 | – | – | – | – | – | – | – |
| Cc1nnc2c(NC3CCN(C)CC3)nc(C(=O)N3[C@H]4Cc5ccccc5[C@@H]3CNC4=O)cn12 | – | – | – | > 20 µM | -0.3 | – | – | – | – | – | – | – |
| C[C@H]1NC(=O)[C@@H]2Cc3ccccc3[C@H]1N2C(=O)c1cn(C)c(=O)c2[nH]c3ccccc3c12 | 31.6 µM | – | > 25.1 µM | 0.21 µM | 1.9 | – | – | – | – | – | – | – |
| Cc1nnc2c(NC3CCN(CC(C)(F)F)CC3)cc(C(=O)N3[C@@H]4c5ccccc5C[C@H]3C(=O)N[C@@H]4C(C)C)nn12 | > 31.6 µM | 0.501 µM | > 25.1 µM | 0.022 µM | 3 | 50.1 µM | 25 | – | – | 0.501 µM | 0.501 µM | 0.501 µM |
